In patent publication US6245817A, “NPY5 receptor antagonists and methods for using same” (Bayer Corporation, priority 1999, dated 2001):

Key:
Rat NPY5 Receptor = target: T1, Rat NPY5 Receptor (Rattus norvegicus, UniProt Q63634); test: Rat NPY5 Receptor Binding Assay; conditions: for IC50: [125I]PYY, read-out: rNPY5 IC50
T1 sequence (Q63634 1-445): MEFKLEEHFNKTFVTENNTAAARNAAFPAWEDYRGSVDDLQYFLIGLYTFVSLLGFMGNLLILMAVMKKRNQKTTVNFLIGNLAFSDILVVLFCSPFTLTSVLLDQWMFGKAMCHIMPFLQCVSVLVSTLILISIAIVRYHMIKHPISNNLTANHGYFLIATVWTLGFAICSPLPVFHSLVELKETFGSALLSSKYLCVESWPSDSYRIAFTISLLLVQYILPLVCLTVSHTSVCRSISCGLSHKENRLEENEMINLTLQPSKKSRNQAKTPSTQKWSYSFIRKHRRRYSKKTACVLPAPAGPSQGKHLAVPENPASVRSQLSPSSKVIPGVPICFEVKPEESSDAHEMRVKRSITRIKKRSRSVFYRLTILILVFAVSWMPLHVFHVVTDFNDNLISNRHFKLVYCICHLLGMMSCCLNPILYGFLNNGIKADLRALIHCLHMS

Human NPY5 Receptor = target: T2, Human NPY5 Receptor (Homo sapiens, UniProt Q15761); test: Human NPY5 Receptor Binding Assay; conditions: [125I]PYY; read-out: hNPY5 IC50
T2 sequence (Q15761 1-445): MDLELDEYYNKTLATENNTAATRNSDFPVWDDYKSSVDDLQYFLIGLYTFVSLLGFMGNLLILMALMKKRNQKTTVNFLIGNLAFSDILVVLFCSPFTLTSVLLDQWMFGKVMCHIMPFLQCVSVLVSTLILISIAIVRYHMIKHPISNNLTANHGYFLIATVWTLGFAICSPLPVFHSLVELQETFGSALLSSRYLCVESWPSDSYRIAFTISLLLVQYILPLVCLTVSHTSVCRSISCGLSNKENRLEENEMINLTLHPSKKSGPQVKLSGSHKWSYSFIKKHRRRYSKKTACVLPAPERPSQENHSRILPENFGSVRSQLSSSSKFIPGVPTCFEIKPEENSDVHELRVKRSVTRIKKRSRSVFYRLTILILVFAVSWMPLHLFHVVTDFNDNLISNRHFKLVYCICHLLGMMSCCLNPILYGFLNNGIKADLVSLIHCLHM

SMILES	inhibition at 10 µM (Rat NPY5 Receptor; 10 μM, values marked *, read-out: rNPY5 percent inhibition at 10 μM)	IC50 (Human NPY5 Receptor)	IC50 (Rat NPY5 Receptor)
O=C(CSc1ncc[nH]1)Nc1ccc(C(=O)c2ccccc2)cc1 [Compound 10, N-(4-Benzoyl-phenyl)-2-(1H-imidazol-2-ylsulfanyl)-acetamide]	97%	–	–
Cc1ccnc(SCC(=O)Nc2ccc(C3CCCCC3)cc2)n1 [Compound 29]	–	190 nM	–
Cc1nc(SCC(=O)Nc2ccc(C3CCCCC3)cc2)n[nH]1 [Compound 73, N-(4-Cyclohexyl-phenyl)-2-(5-methyl-1H-[1,2,4]triazol-3-ylsulfanyl)-acetamide]	–	> 1000 nM	–
O=C(CSc1ncnc2ccccc12)Nc1ccc(C2CCCCC2)cc1 [Compound 74, N-(4-Cyclohexyl-phenyl)-2-(quinazolin-4-ylsulfanyl)-acetamide]	–	> 1000 nM	–
O=C(CSc1nccc(C(F)(F)F)n1)Nc1ccc(C2CCCCC2)cc1 [Compound 75, N-(4-Cyclohexyl-phenyl)-2-(4-trifluoromethylpyrimidin-2-ylsulfanyl)-acetamide]	–	> 1000 nM	–
Nc1cc(N)nc(SCC(=O)Nc2ccc(C3CCCCC3)cc2)n1 [Compound 76, N-(4-Cycyclohexyl-phenyl)-2-(4,6-diamino-pyrimidin-2-ylsulfanyl)-cetamide]	–	> 1000 nM	–
CCOc1ccc2nc(SCC(=O)Nc3ccc(C4CCCCC4)cc3)sc2c1 [Compound 77, N-(4-Cyclohexyl-phenyl)-2-(6-ethoxy-benzothiazol-2-ylsulfanyl)-acetamide]	–	> 1000 nM	–
Nc1nc(SCC(=O)Nc2ccc(C3CCCCC3)cc2)nc(O)c1N=O [Compound 78, 2-(4-Amino-6-hydroxy-5-nitroso-pyrimidin-2-ylsulfanyl)-N-(4-Cyclohexyl-phenyl)-acetamide]	–	> 1000 nM	–
O=C(CSc1nc2cc(Cl)ccc2s1)Nc1ccc(C2CCCCC2)cc1 [Compound 79]	–	> 1000 nM	–
Cc1cc(C)nc(SCC(=O)Nc2ccc(C3CCCCC3)cc2)n1 [Compound 80, N-(4-Cyclohexyl-phenyl)-2-(4,6-dimethyl-pyrimidin-2-ylsulfanyl)-acetamide]	–	> 1000 nM	–
Cc1nc(SCC(=O)Nc2ccc(C(=O)c3ccccc3)cc2)n[nH]1 [Compound 81, N-(4-Benzoyl-phenyl)-2-(5-methyl-1H-[1,2,4]triazol-3-ylsulfanyl)-acetamide]	–	–	> 1000 nM
O=C(CSc1ncnc2ccccc12)Nc1ccc(C(=O)c2ccccc2)cc1 [Compound 82, N-(4-Benzoyl-phenyl)-2-(quinazolin-4-ylsulfanyl)-acetamide]	–	–	> 1000 nM
O=C(CSc1nccc(C(F)(F)F)n1)Nc1ccc(C(=O)c2ccccc2)cc1 [Compound 83, N-(4-Benzoyl-phenyl)-2-(4-trifluoromethylpyrimidin-2-ylsulfanyl)-acetamide]	–	210 nM	200 nM
Nc1cc(N)nc(SCC(=O)Nc2ccc(C(=O)c3ccccc3)cc2)n1 [Compound 84, N-(4-Benzoyl-phenyl)-2-(4,6-diamino-pyrimidin 2-ylsulfanyl)-acetamide]	–	–	> 1000 nM
O=C(CSc1nc(-c2ccccc2)no1)Nc1ccc(C(=O)c2ccccc2)cc1 [Compound 85, N-(4-Benzoyl-phenyl)-2-(3-phenyl-[1,2,4]oxadiazol-ylsulfanyl)-acetamide]	–	200 nM	220 nM
Cc1nnc(SCC(=O)Nc2ccc(C(=O)c3ccccc3)cc2)s1 [Compound 86, N-(4-Benzoyl-phenyl)-2-(5-methyl-[1,3,4]thiadiazol-2-ylsulfanyl)-acetamide]	–	170 nM	150 nM
O=C(CSc1nnnn1-c1ccc(O)cc1)Nc1ccc(C(=O)c2ccccc2)cc1 [Compound 87, N-(4-Benzoyl-phenyl)-2-[1-(4-hydroxy-phenyl)-1H-tetrazol-5-ylsulfanyl]-acetamide]	–	100 nM	120 nM
O=C(CSc1ccnc2cc(C(F)(F)F)ccc12)Nc1ccc(C(=O)c2ccccc2)cc1 [Compound 88, N-(4-Benzoyl-phenyl)-2-(7-trifluoromethyl-quinolin-4-ylsulfanyl)-acetamide]	–	–	> 1000 nM
O=C(CSc1nnc(-c2ccccc2)o1)Nc1ccc(C(=O)c2ccccc2)cc1 [Compound 89, N-(4-Benzoyl-phenyl)-2-(5-phenyl [1,3,4]oxadiazol-2-ylsulfanyl)-acetamide]	–	590 nM	720 nM
O=C(CSc1ccnc2cc(C(F)(F)F)ccc12)Nc1ccc(C2CCCCC2)cc1 [Compound 93, N-(4-Cyclohexyl-phenyl)-2-(7-trifluoromethyl-quinolin-4-ylsulfanyl)-acetamide]	–	–	> 1000 nM

SMILES	inhibition at 10 µM (Rat NPY5 Receptor; 10 μM, values marked *, read-out: rNPY5 percent inhibition at 10 μM)	IC50 (Human NPY5 Receptor)	IC50 (Rat NPY5 Receptor)
O=C(CSc1ccc2ccccc2n1)Nc1ccc(C2CCCCC2)cc1 [Compound 95, N-(4-Cyclohexyl-phenyl)-2-(quinolin-2-ylsulfanyl)-acetamide]	–	–	> 1000 nM
O=C(CSc1ccc2ccccc2n1)Nc1ccc(C(=O)c2ccccc2)cc1 [Compound 100, N-(4-Benzoyl-phenyl)-2-(quinolin-2-ylsulanyl)-acetamide]	–	–	> 1000 nM
Nc1ccc(SCC(=O)Nc2ccc(C(=O)c3ccccc3)cc2)cc1 [Compound 103, 2-(4-Amino-phenylsulfanyl)-N-(4-benzoyl-phenyl)-acetamide]	–	–	> 1000 nM
Cc1cnc(SCC(=O)Nc2ccc(C(=O)c3ccccc3)cc2)nc1S [Compound 104, N-(4-Benzoyl-phenyl)-2-(4-mercapt-5-methyl-pyrimidin-2-ylsulfanyl)-acetamide]	–	–	> 1000 nM
Nc1nc(S)nc(SCC(=O)Nc2ccc(C(=O)c3ccccc3)cc2)n1 [Compound 105, 2-(4-Amino-mercapto-[1,3,5]triazin-2-ylsulfanyl)-N-(4-benzoyl-phenyl)-acetamide]	–	–	> 1000 nM
COc1cccc(SCC(=O)Nc2ccc(C(=O)c3ccccc3)cc2)c1 [Compound 106, N-(4-Benzoyl-phenyl)-2-(3-methoxy-phenylsulfanyl)-acetamide]	–	–	> 1000 nM
Cc1cc(C)c(CSCC(=O)Nc2ccc(C(=O)c3ccccc3)cc2)c(C)c1 [Compound 107, N-(4-Benzoyl-phenyl)-2-(2,4,6-trimethyl-benzylsulfanyl)-acetamide]	–	–	> 1000 nM
CSc1ccc(SCC(=O)Nc2ccc(C(=O)c3ccccc3)cc2)cc1 [Compound 108, N-(4-Benzoyl-phenyl)-2-(4-methylsulfanyl-phenylsulfanyl)-acetamide]	–	–	> 1000 nM
CSc1sc(-c2nnc(SCC(=O)Nc3ccc(C4CCCCC4)cc3)n2C)c2c1C=CCC2 [Compound 112, N-(4-Cyclohexyl-phenyl)-2-[4-methyl-5-(3-methylsulfanyl-6,7-dihydro-benzo[C]thiophen-1-yl)-4H-[1,2,4]triazol-3-ylsulfanyl]-acetamide]	–	–	> 1000 nM
COc1ccc(-c2nnc(SCC(=O)Nc3ccc(C4CCCCC4)cc3)n2-c2cccc(C(F)(F)F)c2)cc1 [Compound 113, N-(4-Cyclohexyl-phenyl)-2-[5-(4-methoxy-phenyl)-4-(3-trifluoromethyl-phenyl)-4-[1,2,4]triazol-3-ylsulfanyl]-acetamide]	–	–	> 1000 nM
O=C(CSc1nnc(CSCCOc2ccc(Cl)cc2Cl)o1)Nc1ccc(C2CCCCC2)cc1 [Compound 117]	–	–	> 1000 nM
O=C(CSc1n[nH]c(-c2ccco2)n1)Nc1ccc(C(=O)c2ccccc2)cc1 [Compound 118]	–	–	> 1000 nM
Cn1nnnc1SCC(=O)NCCc1cccs1 [Compound 126, 2-(1-Methyl-1H-tetrazol-5-ylsulfanyl)-N-(2-thiophen-2-yl-ethyl)-acetamide]	–	–	> 1000 nM
Cn1nnnc1SCC(=O)Nc1nc2ccccc2s1 [Compound 128, N-Benzothiazol-2-yl-2-(1-methyl-1H-tetrazol-5-ylsulfanyl)-acetamide]	–	–	> 1000 nM
Cn1nnnc1SCC(=O)N1CCCCCC1 [Compound 129, 1-Azepan-1-yl-2-(1-methyl-1H-tetrazol-5-ylsulfanyl)-ethanone]	–	–	> 1000 nM
Cn1nnnc1SCC(=O)Nc1cccc2c1Cc1ccccc1-2 [Compound 131, N-(9H-Fluoren-1-yl)-2-(1-methyl-1H-tetrazol-5-ylsulfanyl)-acetamide]	–	–	> 1000 nM
O=C(COc1ccccc1)Nc1ccc(C2CCCCC2)cc1 [Compound 132, N-(4-Cyclohexyl-phenyl)-2-phenoxy-acetamide]	–	–	> 1000 nM
CN1CCC(OCC(=O)Nc2ccc(C(=O)c3ccccc3)cc2)CC1 [Compound 133, N-(4-Benzoyl-phenyl)-2-(1-methyl-piperidin-4-yloxy)-acetamide]	–	–	> 1000 nM
O=C(COc1ccccc1)Nc1ccc(C(=O)c2ccccc2)cc1 [Compound 134, N-(4-Benzoyl-phenyl)-2-phenoxy-acetamide]	–	–	> 1000 nM
CN1CCC(OCC(=O)Nc2ccc(C3CCCCC3)cc2)CC1 [Compound 135, N-(4-Cyclohexyl-phenyl)-2-(1-methy-piperidin-4-yloxy)-acetamide]	–	–	> 1000 nM
